This test deals with human PAD4 (hPAD4) (Homo sapiens, UniProt Q9UM07). Kind of test: RFMS human PAD4 functional assay (rapid-fire mass spectrum). The test is classed as biochemical. To be noted: 5 nM hPAD4 enzyme, 250 μM BAEE, 50 μM Calcium; 30 min preincubation, 90 min reaction at 37° C. Put shortly:
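PAD4 (10 nM) preincubated 30 min with compound (top final 50 μM), then BAEE substrate added in pH 7.5 HEPES buffer with DTT, 50 μM calcium, TPEN; 90 min at 37° C. After TCA quench, citrulline derivatized with phenyl glyoxal (4 mM final, 30 min, 37° C) and quantified by RapidFire MS against internal standard.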

Sequence of human PAD4 (hPAD4) (Q9UM07 whole entry): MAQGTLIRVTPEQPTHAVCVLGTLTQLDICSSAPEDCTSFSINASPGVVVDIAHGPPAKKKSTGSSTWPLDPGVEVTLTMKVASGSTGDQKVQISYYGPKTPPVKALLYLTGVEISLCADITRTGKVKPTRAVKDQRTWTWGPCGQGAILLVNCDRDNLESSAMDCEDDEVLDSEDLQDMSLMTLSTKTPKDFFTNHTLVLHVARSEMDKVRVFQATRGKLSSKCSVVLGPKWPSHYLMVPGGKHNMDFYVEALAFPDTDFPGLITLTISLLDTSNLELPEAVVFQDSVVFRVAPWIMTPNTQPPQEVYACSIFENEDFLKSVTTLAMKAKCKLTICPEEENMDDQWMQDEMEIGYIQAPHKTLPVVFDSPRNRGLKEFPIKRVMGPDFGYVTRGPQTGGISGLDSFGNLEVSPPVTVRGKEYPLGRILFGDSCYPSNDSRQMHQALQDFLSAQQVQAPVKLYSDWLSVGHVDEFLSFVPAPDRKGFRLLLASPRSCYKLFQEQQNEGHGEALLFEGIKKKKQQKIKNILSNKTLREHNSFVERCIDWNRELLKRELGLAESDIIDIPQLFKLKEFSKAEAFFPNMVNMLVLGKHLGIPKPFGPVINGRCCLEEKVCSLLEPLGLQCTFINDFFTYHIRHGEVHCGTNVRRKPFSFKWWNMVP

Regarding `COc1cc(C(=O)N2C[C@H]3CC[C@@H]2[C@@H]3N)cc2nc(-c3cc4cccnc4n3C)n(CC3CN(c4cncc(C#N)n4)C3)c12` [Example 40, 6-[3-({5-[(1R,4R,7R)-7-amino-2-azabicyclo[2.2.1]heptane-2-carbonyl]-7-methoxy-2-{1-methyl-1H-pyrrolo[2,3-b]pyridin-2-yl}-1H-1,3-benzodiazol-1-yl}methyl)azetidin-1-yl]pyrazine-2-carbonitrile], the IC50 turned out to be 98 nM.
The same measure for `COc1cc(C(=O)N2C[C@H]3CC[C@@H]2[C@@H]3N)cc2nc(-c3cc4cc(Cl)ccc4n3C)n(CC3CN(c4ncccn4)C3)c12` [Example 62, (1R,4R,7R)-2-[2-(5-chloro-1-methyl-1H-indol-2-yl)-7-methoxy-1-{[1-(pyrimidin-2-yl)azetidin-3-yl]methyl}-1H-1,3-benzodiazole-5-carbonyl]-2-azabicyclo[2.2.1]heptan-7-amine]: 192 nM.
The same measure for `COc1cc(C(=O)N2C[C@H]3CC[C@@H]2[C@@H]3N)cc2nc(-c3cc4cccnc4n3CC3CC3)n(C3CN(C(=O)c4ccc(Cl)nc4)C3)c12` [Example 99, (1R,4R,7R)-2-{1-[1-(6-chloropyridine-3-carbonyl)azetidin-3-yl]-2-[1-(cyclopropylmethyl)-1H-pyrrolo[2,3-b]pyridin-2-yl]-7-methoxy-1H-1,3-benzodiazole-5-carbonyl}-2-azabicyclo[2.2.1]heptan-7-amine]: 111 nM.
The same measure for `COc1cc(C(=O)N2CC3CCC2[C@@H]3N)cc2nc(-c3cc4ccccc4n3CC3CC3)n(Cc3cnn(-c4ccccn4)c3)c12` (stereo partly drawn) [Example 348, (7R)-2-{2-[1-(cyclopropylmethyl)-1H-indol-2-yl]-7-methoxy-1-{[1-(pyridin-2-yl)-1H-pyrazol-4-yl]methyl}-1H-1,3-benzodiazoie-5-carbonyl}-2-azabicyclo[2.2.1]heptan-7-amine]: 14 nM; for `COc1cc(C(=O)N2C[C@H]3CC[C@@H]2[C@@H]3N)cc2nc(-c3cc4cccnc4n3CC3CC3)n(CC3CCN(C(=O)c4ccncn4)CC3)c12` [Example 233, (1R,4R,7R)-2-{2-[1-(cyclopropylmethyl)-1H-pyrrolo[2,3-b]pyridin-2-yl]-7-methoxy-1-{[1-(pyrimidine-4-carbonyl)piperidin-4-yl]methyl}-1H-1,3-benzodiazole-5-carbonyl}-2-azabicyclo[2.2.1]heptan-7-amine]: 315 nM; for `COc1cc(C(=O)N2C[C@H]3CC[C@@H]2[C@@H]3N)cc2nc(-c3cc4cccnc4n3C)n(CC3CN(c4ccnc(C#N)n4)C3)c12` [Example 26, 4-[3-({5-[(1R,4R,7R)-7-amino-2-azabicyclo[2.2.1]heptane-2-carbonyl]-7-methoxy-2-{1-methyl-1H-pyrrolo[2,3-b]pyridin-2-yl}-1H-1,3-benzodiazol-1-yl}methyl)azetidin-1-yl]pyrimidine-2-carbonitrile]: 72 nM.
On to `COc1cc(C(=O)N2CC3CCC2[C@@H]3N)cc2nc(-c3cc4cccnc4n3CC3CC3)n(CC3CCN(c4ccnc(C#N)n4)CC3)c12` (stereo partly drawn) [Example 218, 4-[4-({5-[(1R,4R.,7R)-7-amino-2-azabicyclo[2.2.1]heptane020 carbonyl]-2-[1-(cyclopropylmethyl)-1H-pyrrolo[2,3-b]pyridin-2-yl]-7-methoxy-1H-1,3-benzodiazol-1-yl}methyl)piperidin-1-yl]pyrimidin-2-carbonitrile], for which the IC50 worked out at 87 nM.
On to `COc1cc(C(=O)N2CC3CCC2[C@@H]3N)cc2nc(-c3cc4ccccc4n3CC3CC3)n(Cc3cnn(-c4cccc(O)n4)c3)c12` (stereo partly drawn) [Example 388, 6-[4-({5-[(7R)-7-amino-2-azabicyclo[2.2.1]heptane-2-carbonyl]-2-[1-(cyclopropylmethyl)-1H-indol-2-yl]-7-methoxy-1H-1,3-benzodiazol-1-yl}methyl)-1H-pyrazol-1-yl]pyridin-2-ol], for which the half-inhibitory concentration (IC50) is 43 nM.
With `COc1cc(C(=O)N2C[C@H]3CC[C@@H]2[C@@H]3N)cc2nc(-c3cc4cccnc4n3CC3CC3)n(CC3CCN(C(=O)c4ccnc(Cl)n4)CC3)c12` [Example 230, (1R,4R,7R)-2-(1-{[1-(2-chloropyrimidine-4-carbonyl)piperidin-4-yl]methyl}-2-[1-(cyclopropylmethyl)-1H-pyrrolo[2,3-b]pyridin-2-yl]-7-methoxy-1H-1,3-benzodiazole-5-carbonyl)-2-azabicyclo[2.2.1]heptan-7-amine], the half-maximal inhibitory concentration (IC50) worked out at 237 nM.
The result for `COc1cc(C(=O)N2CC(Cn3c(-c4cc5ccccc5n4CC4CC4)nc4cc(C(=O)N5CC6CCC5[C@@H]6N)cc(OC)c43)C2)ccn1` (stereo partly drawn) [Example 417, (7R)-2-{2-[1-(cyclopropylmethyl)-1H-indol-2-yl]-7-methoxy-1-{[1-(2-methoxypyridine-4-carbonyl)azetidin-3-yl]methyl}-1H-1,3-benzodiazole-5-carbonyl}-2-azabicyclo[2.2.1]heptan-7-amine] reads 11 nM; that for `CCCC(=O)N1CC(Cn2c(-c3cc4cccnc4n3CC3CC3)nc3cc(C(=O)N4C[C@H]5CC[C@@H]4[C@@H]5N)cc(OC)c32)C1` [Example 118, 1-[3-({5-[(1R,4R,7R)-7-amino-2-azabicyclo[2.2.1]heptane-2-carbonyl]-2-[1-(cyclopropylmethyl)-1H-pyrrolo[2,3-b]pyridin-2-yl]-7-methoxy-1H-1,3-benzodiazol-1-yl}methyl)azetidin-1-yl]butan-1-one], 68 nM; that for `COc1cc(C(=O)N2C[C@H]3CC[C@@H]2[C@@H]3N)cc2nc(-c3cc4cccnc4n3CC3CC3)n(CC3CN(C(=O)C4CC4)C3)c12` [Example 123, (1R,4R,7R)-2-{1-[(1-cyclopropanecarbonylazetidin-3-yl)methyl]-2-[1-(cyclopropylmethyl)-1H-pyrrolo[2,3-b]pyridin-2-yl]-7-methoxy-1H-1,3-benzodiazole-5-carbonyl}-2-azabicyclo[2.2.1]heptan-7-amine], 100 nM.
The same measure for `COc1cc(C(=O)N2C[C@H]3CC[C@@H]2[C@@H]3N)cc2nc(-c3cc4ccccc4n3CC3CC3)n(Cc3ccncc3)c12` [Example 272, (1R,4R,7R)-2-(2-[1-(cyclopropylmethyl)-1H-indol-2-yl]-7-methoxy-1-[(pyridin-4-yl)methyl]-1H-1,3-benzodiazole-5-carbonyl}-2-azabicyclo[2.2.1]heptan-7-amine]: 179 nM; for `COc1cc(C(=O)N2C[C@H]3CC[C@@H]2[C@@H]3N)cc2nc(-c3cc4ccccc4n3CC3CC3)n(CCC3CCS(=O)(=O)CC3)c12` [Example 245, ((1R,4R,7R)-7-amino-2-azabicyclo[2.2.1]heptan-2-yl)(2-(1-(cyclopropylmethyl)-1H-indol-2-yl)-1-(2-(1,1-dioxidotetrahydro-2H-thiopyran-4-yl)ethyl)-7-methoxy-1H-benzo[d]imidazol-5-yl)methanone]: 20 nM; for `COc1cc(C(=O)N2CC3CCC2[C@@H]3N)cc2nc(-c3cc4ccccc4n3CC3CC3)n(CC3CC(=O)N(C)C3)c12` (stereo partly drawn) [Example 473, 4-({5-[(7R)-7-amino-2-azabicyclo[2.2.1]heptane-2-carbonyl]-2-[1-(cyclopropylmethyl)-1H-indol-2-yl]-7-methoxy-1H-1,3-benzodiazol-1-yl}methyl)-1-methylpyrrolidin-2-one]: 129 nM.

As usually defined, the IC50 is the concentration needed to halve the response being measured.

The values are drawn from patent publication US12692254B2, “Benzimidazole inhibitors of PAD enzymes” (BRISTOL-MYERS SQUIBB COMPANY, priority 2018, dated 2026).
